≈ marks a conversion by molar mass, not a printed value.
tested on: Mycobacterium tuberculosis; test: Antitubercular activity against Mycobacterium tuberculosis H37Rv after 6 weeks; assay type: functional

With `COc1cc(C2CC(c3ccc(Cl)cc3Cl)=NN2C(C)=O)cc2nc(N)oc12` (stereo not given) as the compound, how does the MIC read?
Its MIC is 12.5 µg/mL (≈ 29.8 µM).

For `COc1cc(C2CC(c3ccccc3)=NN2C(C)=O)cc2nc(N)oc12` (stereo not given), which MIC is on record?
The MIC was 0.625 µg/mL (≈ 1.78 µM).

`COc1cc(C2CC(c3ccc(F)cc3)=NN2C(C)=O)cc2nc(S)oc12` (stereo not given) was tested. Which MIC did it give?
Its MIC is 12.5 µg/mL (≈ 32.4 µM).

With `CC(=O)N1N=C(c2ccccc2)CC1c1ccc(O)c(N)c1` (stereo not given) as the compound, how does the MIC read?
The MIC was 1.25 µg/mL (≈ 4.23 µM).

With `CC(=O)N1N=C(c2ccccc2Br)CC1c1cc(Cl)c2oc(N)nc2c1` (stereo not given) as the compound, how does the MIC read?
Its MIC is 3.25 µg/mL (≈ 7.49 µM).

Which MIC does the source give for `COc1cc(C2CC(c3ccccc3Br)=NN2C(C)=O)cc(N)c1O` (stereo not given) here?
Its MIC is 12.5 µg/mL (≈ 30.9 µM).

For `NNC(=O)c1ccncc1` [ISONIAZID], which MIC is on record?
Its MIC is 0.625 µg/mL (≈ 4.56 µM).

With `CC(=O)N1N=C(c2ccccc2)CC1c1ccc2oc(S)nc2c1` (stereo not given) as the compound, how does the MIC read?
The MIC was 25 µg/mL (≈ 74.1 µM).

`COc1cc(C2CC(c3ccccc3)=NN2C(C)=O)cc2nc(S)oc12` (stereo not given) was tested. Which MIC did it give?
Its MIC is 6.25 µg/mL (≈ 17 µM).

Which MIC does the source give for `COc1cc(C2CC(c3ccc(Cl)cc3Cl)=NN2C(C)=O)cc(N)c1O` (stereo not given) here?
The MIC was 12.5 µg/mL (≈ 31.7 µM).

`COc1cc(C2CC(c3ccc(F)cc3)=NN2C(C)=O)cc2nc(N)oc12` (stereo not given) was tested. Which MIC did it give?
The MIC was 6.25 µg/mL (≈ 17 µM).

For `CC(=O)N1N=C(c2ccccc2Br)CC1c1cc(Cl)c2oc(S)nc2c1` (stereo not given), which MIC is on record?
Its MIC is 6.25 µg/mL (≈ 13.9 µM).

How did the MIC turn out when `COc1cc(C2CC(c3ccc(Cl)cc3Cl)=NN2C(C)=O)cc2nc(S)oc12` (stereo not given) was run?
The MIC was 6.25 µg/mL (≈ 14.3 µM).

With `COc1cc(C2CC(c3ccccc3Br)=NN2C(C)=O)cc2nc(N)oc12` (stereo not given) as the compound, how does the MIC read?
Its MIC is 12.5 µg/mL (≈ 29.1 µM).

With `COc1cc(C2CC(c3ccc(F)cc3)=NN2C(C)=O)cc(N)c1O` (stereo not given) as the compound, how does the MIC read?
The MIC was 12.5 µg/mL (≈ 36.4 µM).

How did the MIC turn out when `CC(=O)N1N=C(c2ccccc2Br)CC1c1ccc(O)c(N)c1` (stereo not given) was run?
Its MIC is 0.625 µg/mL (≈ 1.67 µM).

How did the MIC turn out when `CC(=O)N1N=C(c2ccccc2)CC1c1cc(Cl)c2oc(S)nc2c1` (stereo not given) was run?
Its MIC is 1.25 µg/mL (≈ 3.36 µM).

With `COc1cc(C2CC(c3ccccc3)=NN2C(C)=O)cc(N)c1O` (stereo not given) as the compound, how does the MIC read?
Its MIC is 25 µg/mL (≈ 76.8 µM).

Which MIC does the source give for `CC(=O)N1N=C(c2ccccc2)CC1c1cc(N)c(O)c(Cl)c1` (stereo not given) here?
Its MIC is 3.25 µg/mL (≈ 9.85 µM).

How did the MIC turn out when `CC(=O)N1N=C(c2ccccc2Br)CC1c1ccc2oc(S)nc2c1` (stereo not given) was run?
Its MIC is 12.5 µg/mL (≈ 30 µM).

`COc1cc(C2CC(c3ccccc3Br)=NN2C(C)=O)cc2nc(S)oc12` (stereo not given) was tested. Which MIC did it give?
Its MIC is 12.5 µg/mL (≈ 28 µM).

With `CC(=O)N1N=C(c2ccccc2)CC1c1ccc2oc(N)nc2c1` (stereo not given) as the compound, how does the MIC read?
The MIC was 25 µg/mL (≈ 78 µM).

With `CC(=O)N1N=C(c2ccccc2Br)CC1c1cc(N)c(O)c(Cl)c1` (stereo not given) as the compound, how does the MIC read?
Its MIC is 12.5 µg/mL (≈ 30.6 µM).

For `CC(=O)N1N=C(c2ccccc2Br)CC1c1ccc2oc(N)nc2c1` (stereo not given), which MIC is on record?
The MIC was 25 µg/mL (≈ 62.6 µM).

How did the MIC turn out when `CC(=O)N1N=C(c2ccccc2)CC1c1cc(Cl)c2oc(N)nc2c1` (stereo not given) was run?
The MIC was 25 µg/mL (≈ 70.5 µM).
